Reference: EPA's ToxRefDB 2

Experiments:
primate [1] = conditions: Chronic toxicity, Oral, Gavage/Intubation, dose end: 182 day, group: systemic
rat [2] = conditions: Sub-acute repeat dose toxicity; wistar; Injection; Intravenous; dose end: 14 day; group: systemic; systemic / in life observation / clinical signs / skin discoloration + systemic / pathology microscopic / skin / inflammation + systemic / …
rat [3] = conditions: Sub-acute repeat dose toxicity, wistar, Oral, Gavage/Intubation, dose end: 14 day, group: systemic
rat [4] = conditions: Fertility (Segment I); Oral; Gavage/Intubation; dose end: 1 generation; group: parental; systemic / in life observation / body weight / body weight gain + systemic / in life observation / food consumption / food consumption
rabbit = conditions: Prenatal developmental toxicity study, Oral, Gavage/Intubation, dose end: 19 GD, group: maternal
primate [5] = conditions: Sub-acute repeat dose toxicity, Injection, Intravenous, dose end: 14 day, group: systemic
rat [6] = conditions: Sub-acute repeat dose toxicity, wistar, Oral, Feed, dose end: 14 day, group: systemic
dog [7] = conditions: Chronic toxicity, beagle, Oral, Feed, dose end: 52 week
rat [8] = conditions: Multigenerational reproductive toxicity study, other, Oral, Feed, dose end: 2 generation
dog [9] = conditions: Subchronic oral toxicity in nonrodent, beagle, Feed, dose end: 13 week, group: systemic, systemic / hematology / erythrocyte (rbc) count differential / erythrocyte (rbc) + systemic / in life observation / body weight / body …
rat [10] = conditions: Combined chronic toxicity/carcinogenicity, sprague dawley, Oral, Feed, dose end: 2 year
rat [11] = conditions: Prenatal developmental toxicity study, fischer, Oral, Feed, dose end: 15 GD
mouse [12] = conditions: Carcinogenicity, cd1, Oral, Feed, dose end: 97 week, group: systemic
dog [13] = conditions: Subchronic oral toxicity in nonrodent, beagle, Feed, dose end: 6 month
mouse [14] = conditions: Subchronic oral toxicity in rodents, cd1, Feed, dose end: 4 week, group: systemic
rat [15] = conditions: Subchronic oral toxicity in rodents, fischer, Feed, dose end: 13 week
[16] = systemic / clinical chemistry / protein / protein + systemic / hematology / red blood cell distribution width (rdw) / red blood cell …
[17] = systemic / pathology gross / lymph node / enlarged + systemic / in life observation / clinical signs / salivation + systemic / in life …
[18] = systemic / hematology / hematocrit (hct) / hematocrit (hct) + systemic / hematology / hemoglobin (hgb) / hemoglobin (hgb) + systemic / …
[19] = reproductive / reproductive performance / aborted / aborted + systemic / in life observation / body weight / body weight + systemic / in …
[20] = systemic / clinical chemistry / albumin / albumin + systemic / clinical chemistry / globulins / globulins + systemic / clinical chemistry / …
[21] = systemic / hematology / hematocrit (hct) / hematocrit (hct) + systemic / in life observation / body weight / body weight + systemic / in …
[22] = systemic / hematology / [other] / [other] + systemic / hematology / erythrocyte (rbc) count differential / erythrocyte (rbc) + systemic / …
[23] = systemic / hematology / erythrocyte (rbc) count differential / erythrocyte (rbc) + systemic / hematology / hematocrit (hct) / hematocrit (…
[24] = group: cholinesterase, cholinesterase / cholinesterase / cholinesterase / brain cholinesterase (che) + cholinesterase / cholinesterase / cholinesterase / …
[25] = group: cholinesterase, cholinesterase / cholinesterase / cholinesterase / plasma cholinesterase (che)
[26] = group: systemic, systemic / hematology / erythrocyte (rbc) count differential / erythrocyte (rbc) + systemic / hematology / hematocrit (hct) / hematocrit (…
[27] = group: offspring, developmental / offspring survival late / viability index / viability index
[28] = group: offspring, developmental / offspring survival late / viability index / viability index + systemic / in life observation / body weight / offspring (pup…
[29] = group: parental, systemic / in life observation / body weight / body weight + systemic / in life observation / body weight / body weight gain + systemic / in…
[30] = group: cholinesterase, cholinesterase / cholinesterase / cholinesterase / erythrocyte cholinesterase (che)
[31] = group: cholinesterase, cholinesterase / cholinesterase / cholinesterase / erythrocyte cholinesterase (che) + cholinesterase / cholinesterase / cholinesterase / …
[32] = group: systemic, systemic / pathology microscopic / spleen / hematopoietic cell proliferation
[33] = group: systemic, systemic / pathology microscopic / spleen / hematopoietic cell proliferation + systemic / hematology / erythrocyte (rbc) count differential…
[34] = group: developmental, developmental / developmental malformation / bone / bipartite ossification + developmental / developmental malformation / general / crown-…
[35] = group: maternal, systemic / in life observation / body weight / body weight gain + reproductive / reproductive performance / pregnancy / pregnancy + …
[36] = systemic / clinical chemistry / alanine aminotransferase (alt/sgpt) / alanine aminotransferase (alt/sgpt) + systemic / clinical chemistry / …
[37] = group: systemic, systemic / clinical chemistry / alanine aminotransferase (alt/sgpt) / alanine aminotransferase (alt/sgpt) + systemic / organ weight / liver…
[38] = systemic / organ weight / spleen / absolute
[39] = group: cholinesterase, cholinesterase / cholinesterase / cholinesterase / brain cholinesterase (che)
[40] = group: systemic, systemic / clinical chemistry / calcium / calcium + systemic / hematology / leukocyte (wbc) count differential / leukocyte (wbc) + systemic…

CCC(C)C(NC(=O)c1ccccc1SSc1ccccc1C(=O)NC(C(=O)O)C(C)CC)C(=O)O (stereo not drawn) [CI-1012]
LOAEL (primate [1]; [16]): > 250 mg/kg/day
NOAEL (primate [1]; [16]): ≥ 250 mg/kg/day
LEL (primate [1]; [17]): 50 mg/kg/day
NEL (primate [1]; [17]): < 50 mg/kg/day
LEL (rat [2]): 25 mg/kg/day
LOAEL (rat [2]): > 100 mg/kg/day
NEL (rat [2]): < 25 mg/kg/day
NOAEL (rat [2]): ≥ 100 mg/kg/day
LOAEL (rat [3]; [18]): > 1500 mg/kg/day
NEL (rat [3]; [18]): 100 mg/kg/day
NOAEL (rat [3]; [18]): ≥ 1500 mg/kg/day
LEL (rat [3]; systemic / organ weight / spleen / absolute + systemic / pathology microscopic / stomach / hyperplasia): 250 mg/kg/day
LEL (rat [4]): 100 mg/kg/day
LOAEL (rat [4]): > 500 mg/kg/day
NEL (rat [4]): 50 mg/kg/day
NOAEL (rat [4]): ≥ 500 mg/kg/day
LOAEL (rabbit; [19]): > 250 mg/kg/day
NEL (rabbit; [19]): 25 mg/kg/day
NOAEL (rabbit; [19]): ≥ 250 mg/kg/day
LEL (rabbit; reproductive / reproductive performance / aborted / aborted + systemic / in life observation / body weight / body weight gain + systemic / …): 100 mg/kg/day
LEL (primate [5]; [20]): 75 mg/kg/day
NEL (primate [5]; [20]): 25 mg/kg/day
LOAEL (primate [5]; [21]): > 125 mg/kg/day
NOAEL (primate [5]; [21]): ≥ 125 mg/kg/day
LOAEL (rat [6]; [22]): > 1500 mg/kg/day
NOAEL (rat [6]; [22]): ≥ 1500 mg/kg/day
LEL (rat [6]; [23]): 250 mg/kg/day
NEL (rat [6]; [23]): 100 mg/kg/day

CSC(C)=NOC(=O)N(C)SN(C)C(=O)ON=C(C)SC [Thiodicarb]
LOAEL (dog [7]; [24]): 12.8 mg/kg/day
NOAEL (dog [7]; [24]): 4.4 mg/kg/day
LEL (dog [7]; [25]): 4.5 mg/kg/day
NEL (dog [7]; [25]): < 4.5 mg/kg/day
LEL (dog [7]; [26]): 38.3 mg/kg/day
LOAEL (dog [7]; [26]): 38.3 mg/kg/day
NEL (dog [7]; [26]): 12.8 mg/kg/day
NOAEL (dog [7]; [26]): 12.8 mg/kg/day
LOAEL (rat [8]; [27]): 5 mg/kg/day
NOAEL (rat [8]; [27]): < 5 mg/kg/day
LEL (rat [8]; [28]): 5 mg/kg/day
NEL (rat [8]; [28]): < 5 mg/kg/day
LEL (rat [8]; [29]): 15 mg/kg/day
LOAEL (rat [8]; [29]): 15 mg/kg/day
NEL (rat [8]; [29]): 5 mg/kg/day
NOAEL (rat [8]; [29]): 5 mg/kg/day
LEL (dog [9]): 40 mg/kg/day
LOAEL (dog [9]): 40 mg/kg/day
NEL (dog [9]): 15 mg/kg/day
NOAEL (dog [9]): 15 mg/kg/day
LEL (rat [10]; [30]): 15 mg/kg/day
LOAEL (rat [10]; [30]): 15 mg/kg/day
NEL (rat [10]; [31]): 4.5 mg/kg/day
NOAEL (rat [10]; [31]): 4.5 mg/kg/day
LEL (rat [10]; [32]): 12 mg/kg/day
LOAEL (rat [10]; [32]): 12 mg/kg/day
NEL (rat [10]; [33]): 3.3 mg/kg/day
NOAEL (rat [10]; [33]): 3.3 mg/kg/day
LEL (rat [11]; [34]): 100 mg/kg/day
LOAEL (rat [11]; [34]): 100 mg/kg/day
NEL (rat [11]; [34]): 3 mg/kg/day
NOAEL (rat [11]; [34]): 3 mg/kg/day
LEL (rat [11]; group: maternal, reproductive / reproductive performance / pregnancy / pregnancy): 3 mg/kg/day
LOAEL (rat [11]; group: maternal, systemic / in life observation / body weight / body weight gain): 1 mg/kg/day
NEL (rat [11]; [35]): 1 mg/kg/day
NOAEL (rat [11]; [35]): 0.5 mg/kg/day
LOAEL (mouse [12]; [36]): 1000 mg/kg/day
NOAEL (mouse [12]; [36]): 70 mg/kg/day
NEL (mouse [12]; systemic / in life observation / body weight / body weight + systemic / organ weight / kidney / absolute + systemic / organ weight / kidney…): 5 mg/kg/day
LEL (mouse [12]; systemic / pathology gross / spleen / enlarged + systemic / organ weight / liver / absolute + systemic / organ weight / spleen / absolute + …): 70 mg/kg/day
LEL (dog [13]; [31]): 45 mg/kg/day
LOAEL (dog [13]; [31]): 45 mg/kg/day
NEL (dog [13]; [31]): 15 mg/kg/day
NOAEL (dog [13]; [31]): 15 mg/kg/day
LEL (dog [13]; [37]): 45 mg/kg/day
LOAEL (dog [13]; [37]): 45 mg/kg/day
NEL (dog [13]; [37]): 15 mg/kg/day
NOAEL (dog [13]; [37]): 15 mg/kg/day
LOAEL (mouse [14]; systemic / in life observation / body weight / body weight gain): 734 mg/kg/day
LEL (mouse [14]; [38]): 6.2 mg/kg/day
NEL (mouse [14]; [38]): < 6.2 mg/kg/day
NOAEL (mouse [14]; systemic / organ weight / spleen / absolute + systemic / in life observation / body weight / body weight gain + systemic / in life …): 346 mg/kg/day
LEL (rat [15]; [39]): 30 mg/kg/day
LOAEL (rat [15]; [39]): > 30 mg/kg/day
NEL (rat [15]; [39]): 10 mg/kg/day
NOAEL (rat [15]; [39]): ≥ 30 mg/kg/day
LOAEL (rat [15]; [40]): > 30 mg/kg/day
NEL (rat [15]; [40]): 3 mg/kg/day
NOAEL (rat [15]; [40]): ≥ 30 mg/kg/day
LEL (rat [15]; group: systemic, systemic / hematology / leukocyte (wbc) count differential / leukocyte (wbc) + systemic / in life observation / body weight / body weight): 10 mg/kg/day
